From patent US11655297B2, “ILDR2 antagonists and combinations thereof” (Bayer Aktiengesellschaft, priority 2017, dated 2023)

Experiments:
[1] = system: IL-2 secretion of CD4 T cells co-cultured with M-CSF mature monocytes; assay: Mixed lymphocyte reaction (MLR), antibody-evoked IL-2 secretion by Elisa; type: cell-based
Protocol: To determine the effect of these antibodies on ILDR2 function an immunomodulation assay was carried out, namely a mixed lymphocyte reaction assay. The mixed lymphocyte reaction (MLR) is a test in which populations of lymphocytes are mixed together, and the resulting reactions are measured. Technically, it is an ex-vivo cellular immune assay that occurs between two allogeneic lymphocyte populations. In a one-way MLR, only one lymphocyte population can respond or proliferate. In a two-way MLR, both populations can proliferate. MLR's are performed to assess how T cells react to external stimuli, e.g., exposure to immune checkpoint inhibitors, like anti PD-1 antibodies (Wang et al 2014) and anti-PD-L1 antibodies. In the present context, antibody-evoked IL-2 secretion was measured with this assay.
In the present case, CD4 T cells from one donor were co-cultured with M-CSF mature monocytes from another donor in the presence of various ILDR2 antibodies, a function-blocking PD-L1 antibody or an isotype control for 5 days. […] Results are shown in FIG. 9B and the following table 3.

B16F10 tumor model = assay: B16-F10 preventive treatment, syngeneic tumor model; type: in vivo, mouse; conditions: for Mean tumor size: 10 mg/kg i.p. q3d×6 from tumor inoculation
Description: (§1) The following syngeneic tumor models were subcutaneously used in in vivo experiments: B16-F10 cells represent a mouse melanoma cell line derived from the skin of C57BL/6J mice. CT26 is an N-nitroso-N-methylurethane-(NNMU) induced, undifferentiated colon carcinoma cell line. It is a fibroblast cell type and derives from BALB/c mice. 3C9-D11-H11 cells are hybridoma B lymphocytes generated by fusion of spleen cells with Sp2/0-Ag14 myeloma cells. The spleen cells derive from BALB/c mice that were immunized with purified porcine parvovirus (PPV).

B16-F10 tumor model = assay: B16-F10 therapeutic treatment, combination with aPD-L1; type: in vivo, mouse
Description: as §1

CT26 tumor model = assay: CT26 therapeutic, combination with aPD-L1; type: in vivo, mouse; conditions: aPD-L1 10 mg/kg
Description: as §1

3C9-D11-H11 tumor model = assay: 3C9-D11-H11 therapeutic, combination with aPD-L1; type: in vivo, mouse
Description: as §1

B16F10 OVA tumor model = assay: B16F10 OVA model, combination with OVA vaccine and CpG oligo; type: in vivo, mouse; conditions: for Mean tumor size: BAY 1905254 10 mg/kg i.p. q3d×3 starting day 8, 50 μg OVA + 10 μg CPG s.c. on day 9
Protocol: 50 μg OVA (in 50 μl)+10 μg CPG (in 10 μl)+140 μl PBS=200 μl/mouse was applied subcutaneously to the left flank adjacent to the tumor, on day 9. The CpG oligonucleotide was ODN 1826 (5′-[…]-3′; bases are phosphorothioate/nuclease resistant) that is specific for mouse TLR9 was used (Invivogen MA-1826-5).

CT26 C4.4a tumor model = assay: CT26 C4.4a model, combination with C4.4A ADC; type: in vivo, mouse; conditions: for Mean tumor size: BAY 1905254 10 mg/kg i.p. q3d×5, C4.4A ADC 10 mg/kg i.v. q4d×3, starting day 6
Protocol: This model is a derivative of the parental CT26 model expressing murine C4.4a on the surface of the tumor cells.
C4.4A ADC (antibody-drug conjugate BAY1129980), which is composed of an antibody against a structural homolog of the urokinase-type plasminogen activator receptor (uPAR) and tumor-associated antigen, C4.4a, and conjugated with a cytotoxic agent, was dosed 10 mg/kg i.v. q4d×3, starting day 6.

[2] = system: B16F10 syngeneic mouse model; assay: Tumor shrinking activity in B16F10 syngeneic mouse model (FIG. 9A); type: in vivo
Protocol: Tumor shrinking activity is measured as decrease of tumor volume, relative to an isotype control.
To determine the anti-tumor efficacy, such as for example, the tumor shrinking effect of the respective binders, two syngeneic mouse models (B16F10, CT26) were used as discussed above.

[3] = system: CT26 syngeneic mouse model; assay: Tumor shrinking activity in CT26 syngeneic mouse model (FIG. 9C)
Protocol: FIG. 9C: Tumor shrinking activity of selected anti ILDR2 antibodies according to the present invention in a CT26 syngeneic mouse model. Tumor shrinking activity is measured as decrease of tumor volume, relative to an Isotype control.

B16-F10 OVA tumor model = assay: B16-F10 OVA model, combination with Docetaxel; conditions: for Mean tumor size: BAY 1905254 10 mg/kg i.p. q3d×3 starting day 8, Docetaxel once 20 mg/kg i.v. on day 8
Protocol: Eight weeks old female C57B1/6N Cr1 BR mice (body weight 18-20 g) from Charles River Deutschland, Sulzfeld were used for the B16-F10 OVA tumor model. The model is a derivative of the B16F10 cell line expressing the allo-antigen ovalbumin which can be recognized by antigen-specific T cells. The experiment was initiated after an acclimatization period of 5 days. Animals were kept in a 12-hour light/dark cycle. Food and water was available ad libitum. Housing temperature was maintained at 21° C. Mice (n=12 per group) were s.c. inoculated with 1×10^4 B16F10 OVA tumor cells into the left flank and assigned to experimental groups. At treatment initiation, animals were marked and each cage was labeled with the cage number, study number and the number of animals per cage.
Agents were dosed i.p. at 10 mg/kg q3d×3, starting day 8.

Substance: BAY1905254: anti ILDR2 antibody, heavy chain SEQ ID NO:42, light chain SEQ ID NO:43
- IL2 concentration (% over isotype control) ([1]; MLR, 5 days, supernatant Elisa): 91 +/− 11%
- IL-2 secretion / cytokine induction in MLR (in words) ([1]; vs isotype control or anti PD-L1 antibody): do not mediate IL-2 induction
- tumor size of the treatment group vs. isotype control (T/C) (B16F10 tumor model; B16-F10 preventive, 10 mg/kg i.p. q3d×6): 0.63
- tumor growth vs. isotype control (in words) (B16F10 tumor model; B16F10, 10 mg/kg i.p., start of treatment d0, 2 way ANOVA): significantly delayed
- Mean tumor size (B16F10 tumor model; day 3 post inoculation): 34.5 mm3
- Mean tumor size (B16F10 tumor model; day 6 post inoculation): 77.3 mm3
- Mean tumor size (B16F10 tumor model; day 8 post inoculation): 90.1 mm3
- Mean tumor size (B16F10 tumor model; day 11 post inoculation): 286.8 mm3
- Mean tumor size (B16F10 tumor model; day 13 post inoculation): 389.2 mm3
- Mean tumor size (B16F10 tumor model; day 15 post inoculation): 1059.9 mm3
- Mean tumor size (B16F10 tumor model; day 17 post inoculation): 1204 mm3
- tumor growth vs. isotype control (in words) (B16-F10 tumor model; B16-F10 therapeutic, 10 mg/kg q3d i.p., 2 way ANOVA): No monotherapy efficacy
- tumor size of the treatment group vs. isotype control (T/C) (B16-F10 tumor model; B16-F10 therapeutic, 10 mg/kg i.p. q3d×5 starting d3): 1.08
- Mean tumor size (B16-F10 tumor model; day 6 post inoculation, 10 mg/kg i.p. q3d×5 starting d3): 76.07 mm3
- Mean tumor size (B16-F10 tumor model; day 8 post inoculation, 10 mg/kg i.p. q3d×5 starting d3): 80.52 mm3
- Mean tumor size (B16-F10 tumor model; day 10 post inoculation, 10 mg/kg i.p. q3d×5 starting d3): 158.01 mm3
- Mean tumor size (B16-F10 tumor model; day 13 post inoculation, 10 mg/kg i.p. q3d×5 starting d3): 479.92 mm3
- Mean tumor size (B16-F10 tumor model; day 15 post inoculation, 10 mg/kg i.p. q3d×5 starting d3): 986.99 mm3
- tumor size of the treatment group vs. isotype control (T/C) (CT26 tumor model; CT26, BAY1905254 3 mg/kg i.p. q3d×3 starting d7): 0.95
- tumor growth vs. isotype control (in words) (CT26 tumor model; CT26, BAY1905254 3 mg/kg q3d i.p. from d7, 2 way ANOVA): no delay of tumor growth
- Mean tumor size (CT26 tumor model; day 7 post inoculation, BAY1905254 3 mg/kg i.p. q3d×3 starting d7): 136.38 mm3
- Mean tumor size (CT26 tumor model; day 10 post inoculation, BAY1905254 3 mg/kg i.p. q3d×3 starting d7): 227.41 mm3
- Mean tumor size (CT26 tumor model; day 13 post inoculation, BAY1905254 3 mg/kg i.p. q3d×3 starting d7): 367.22 mm3
- Mean tumor size (CT26 tumor model; day 15 post inoculation, BAY1905254 3 mg/kg i.p. q3d×3 starting d7): 576.28 mm3
- tumor size of the treatment group vs. isotype control (T/C) (3C9-D11-H11 tumor model; 3C9-D11-H11, 10 mg/kg i.p. q3d×5 starting d8): 0.87
- tumor growth vs. isotype control (in words) (3C9-D11-H11 tumor model; 3C9-D11-H11, 10 mg/kg q3d i.p. from d8, 2 way ANOVA): not the case
- Mean tumor size (3C9-D11-H11 tumor model; day 7 post inoculation, 10 mg/kg i.p. q3d×5 starting d8): 63.28 mm3
- Mean tumor size (3C9-D11-H11 tumor model; day 10 post inoculation, 10 mg/kg i.p. q3d×5 starting d8): 67.18 mm3
- Mean tumor size (3C9-D11-H11 tumor model; day 14 post inoculation, 10 mg/kg i.p. q3d×5 starting d8): 198.87 mm3
- Mean tumor size (3C9-D11-H11 tumor model; day 16 post inoculation, 10 mg/kg i.p. q3d×5 starting d8): 314.06 mm3
- Mean tumor size (3C9-D11-H11 tumor model; day 18 post inoculation, 10 mg/kg i.p. q3d×5 starting d8): 574.54 mm3
- Mean tumor size (3C9-D11-H11 tumor model; day 21 post inoculation, 10 mg/kg i.p. q3d×5 starting d8): 1377.9 mm3
- tumor size of the treatment group vs. Control (T/C) (B16F10 OVA tumor model; B16F10 OVA, BAY 1905254 10 mg/kg i.p. q3d×3, OVA + CPG s.c. once): 0.66
- tumor growth vs. isotype control (in words) (B16F10 OVA tumor model; B16F10 OVA, BAY1905254 10 mg/kg q3d i.p., OVA and CPG, 2 way ANOVA): moderate delay of tumor growth
- Mean tumor size (B16F10 OVA tumor model; day 9 post inoculation): 66.09 mm3
- Mean tumor size (B16F10 OVA tumor model; day 11 post inoculation): 137.52 mm3
- Mean tumor size (B16F10 OVA tumor model; day 14 post inoculation): 314.75 mm3
- Mean tumor size (B16F10 OVA tumor model; day 16 post inoculation): 483.38 mm3
- Mean tumor size (B16F10 OVA tumor model; day 18 post inoculation): 711.93 mm3
- tumor size of the treatment group vs. Control (T/C) (CT26 C4.4a tumor model; CT26 C4.4a, BAY 1905254 10 mg/kg i.p. q3d×5, C4.4A ADC 10 mg/kg i.v. q4d×3): 1.13
- tumor growth vs. isotype control (in words) (CT26 C4.4a tumor model; FIG. 8, BAY1905254 10 mg/kg i.p., C4.4A ADC 10 mg/kg i.v., from d6, 2 way ANOVA): does not lead to a delay in tumor growth
- Mean tumor size (CT26 C4.4a tumor model; day 6 post inoculation): 56.89 mm3
- Mean tumor size (CT26 C4.4a tumor model; day 10 post inoculation): 141.28 mm3
- Mean tumor size (CT26 C4.4a tumor model; day 12 post inoculation): 220.99 mm3
- Mean tumor size (CT26 C4.4a tumor model; day 14 post inoculation): 260.95 mm3
- Mean tumor size (CT26 C4.4a tumor model; day 17 post inoculation): 566.58 mm3
- Mean tumor size (CT26 C4.4a tumor model; day 19 post inoculation): 706.01 mm3
- tumor shrinkage measured against an isotype control (in words) [2]: do
- anti-tumor activity in an in vivo tumor model compared with anti PD-L1 antibody (in words) [3]: comparable to that of an anti PD-L1 antibody
- tumor size of the treatment group vs. Control (T/C) (B16-F10 OVA tumor model; B16-F10 OVA, BAY 1905254 10 mg/kg i.p. q3d×3, Docetaxel once 20 mg/kg i.v.): 0.86
- tumor growth vs. isotype control (in words) (B16-F10 OVA tumor model; B16F10 OVA, BAY1905254 10 mg/kg q3d i.p., Docetaxel 20 mg/kg i.v. once, 2 way ANOVA): moderate delay of tumor growth
- Mean tumor size (B16-F10 OVA tumor model; day 8 post inoculation): 86.26 mm3
- Mean tumor size (B16-F10 OVA tumor model; day 11 post inoculation): 97.06 mm3
- Mean tumor size (B16-F10 OVA tumor model; day 14 post inoculation): 207.75 mm3
- Mean tumor size (B16-F10 OVA tumor model; day 16 post inoculation): 382.66 mm3
